Reference: publication PMC5840523, “Assessment of a pretomanid analogue library for African trypanosomiasis: Hit-to-lead studies on 6-substituted 2-nitro-6,7-dihydro-5H-imidazo[2,1-b][1,3]thiazine 8-oxides” (Bioorganic & Medicinal Chemistry Letters, 2018)
Converted amounts (≈) assume the structure as drawn.

Columns and labels:
T. b. brucei 427 [1] = experiment: T. b. brucei 427 growth inhibition (Scynexis); assay type: cell-based, Trypanosoma brucei brucei; conditions: for Selectivity Index: L929 vs T. b. brucei; for IC50: Trypanosoma brucei, growth inhibition of T. b. brucei 427, mean ± SD
L929 mouse fibroblasts = experiment: Cytotoxicity toward L929 mouse fibroblasts (Scynexis); assay type: cell-based
MDCK-MDR1 cell monolayer = conditions: dog, MDCK-MDR1, 1 h, 3 µM
in vitro = conditions: dog, MDCK-MDR1, Permeability Papp
T. b. brucei 427 [2] = experiment: T. b. brucei growth inhibition (University of Antwerp); assay type: cell-based, Trypanosoma brucei brucei; conditions: Trypanosoma brucei, T. b. brucei 427; mean of 2 to 5 determinations; read-out: IC50 T. b. bruc
T. b. rhodesiense = T. b. rhodesiense growth inhibition (University of Antwerp); assay type: cell-based, Trypanosoma brucei rhodesiense; conditions: Trypanosoma brucei, RHODESIENSE, mean of 2 to 5 determinations; read-out: IC50 T. b. rhod
Trypanosoma cruzi = experiment: T. cruzi growth inhibition (University of Antwerp); assay type: cell-based; conditions: Trypanosoma cruzi, mean of 2 to 5 determinations
Leishmania infantum = experiment: L. infantum growth inhibition (University of Antwerp); assay type: cell-based; conditions: Leishmania infantum, mean of 2 to 5 determinations
[3] = tested on: human lung fibroblasts (MRC-5 cells); experiment: Cytotoxicity toward MRC-5 cells (University of Antwerp); assay type: cell-based; conditions: Homo sapiens, MRC5, cytotoxicity toward human lung fibroblasts

absolute AQ (MDCK-MDR1 cell monolayer) | Permeability Papp (MDCK-MDR1 cell monolayer) [nm/s] | Papp at 1 h, 3 µM (in vitro) [×10⁻⁶ cm/s] | IC50 (Trypanosoma cruzi) [nM] | SMILES | Selectivity Index (T. b. brucei 427 [1]) | IC50 (T. b. brucei 427 [1]) [µg/mL] | IC50 (L929 mouse fibroblasts) [µg/mL] | IC50 (T. b. brucei 427 [2]) [nM] | IC50 (T. b. rhodesiense) [nM] | IC50 (Leishmania infantum) [µM] | IC50 [3] [µM]
≥ 0.3 |  |  |  | O=[N+]([O-])c1cn2c(n1)OCC(COc1ccc(-c3ccc(OC(F)(F)F)cc3)nc1)C2 (stereo not shown) [Compound 18] | >12 | 0.83 ± 0.41 (≈ 1.9 µM) | > 10 |  |  |  | 
 | <0.8 | < 0.08 |  | O=[N+]([O-])c1cn2c(n1)OC[C@@H](OCCCc1ccc(-c3ccc(Oc4ccc(C(F)(F)F)cc4)cc3)cc1)C2 [Compound 13] | >43 | 0.23 ± 0.04 (≈ 0.426 µM) | > 10 |  |  |  | 
≥ 0.3 | 117 | < 15 |  | O=[N+]([O-])c1cn2c(n1)OCC(COc1ccc(-c3ccc(C(F)(F)F)cc3)nc1)C2 (stereo not shown) [Compound 14] | >36 | 0.28 ± 0.11 (≈ 0.666 µM) | > 10 |  |  |  | 
≥ 0.3 |  |  | 350 | O=[N+]([O-])c1cn2c(n1)S(=O)(=O)CC(OCc1ccc(OCc3ccccc3)cc1)C2 (stereo not shown) [Compound 10] | >303 | 0.033 ± 0.018 (≈ 0.0768 µM) | > 10 | 97 | 27 | 7.3 | > 64
≥ 0.3 |  |  |  | O=[N+]([O-])c1cn2c(n1)OC[C@@H](OCC#Cc1ccc(-c3ccc(C(F)(F)F)cc3)cn1)C2 [Compound 16] | >19 | 0.53 ± 0.23 (≈ 1.19 µM) | > 10 |  |  |  | 
